From article PMC11542593, “Vascular endothelial growth factor receptor 2 as a potential host target for the inhibition of enterovirus replication” (Journal of Virology, 2024)

Assays:
EV-A71 [1] = test: Cytopathic effect (CPE) inhibition assay in RD cells; assay type: cell-based, Human enterovirus A71; conditions: Enterovirus A, EVA71, RD, read-out: EC50, compound concentration required to achieve 50% protection from virus-induced cytopathogenicity
VEGFR1 = tested on: VEGFR1; design: method as in PMID 17620431; conditions: cited from earlier work
[2] = CellTiter-Glo luminescent cell viability assay (cytotoxicity); conditions: human, RD cells
Method: Fig. S1. (A) RD cells were treated with the indicated concentrations of inhibitors and incubated at 37°C for 24 h. CellTiter‐Glo® luminescent cell viability assay was used to measure the CC50 of selected inhibitors. […] (B) RD cells treated with the selected inhibitors (10 μM) were inoculated with EV-A71 at an MOI of 0.01. At 48 hpi, cells were harvested to detect the expression level of VP1 by western blotting.

CVA10 = test: Antiviral activity against CVA10 in RD cells (RT-qPCR, TCID50); assay type: cell-based, coxsackievirus A10; conditions: 10 µM, 0.1 MOI, 24 h
Method: Detection of cellular mRNA expression and viral load was performed as described previously ([24]). In brief, the infected or mock-infected cells were lysed and applied to total RNA extraction by using the MiniBEST Universal RNA Extraction Kit (TaKaRa, Code No.9767). Viral RNA in the supernatant was extracted with the MiniBEST Viral RNA Extraction Kit (TaKaRa, Code No.9766). Reverse transcription was performed using the PrimeScript RT reagent Kit (TaKaRa, Code No.PR037A) with an oligo (dT) primer. The resultant cDNAs were used for qPCR assay with the Light Cycler 480 SYBR Green I Master Mix (Roche) to measure the mRNA expression level of cellular genes or viral load in supernatants. The relative viral gene copy was determined by RT-qPCR, using GAPDH as an internal reference.
The viral titer in the indicated samples was determined by TCID50 assay as described previously ([25]). Briefly, serially diluted samples from 10^−1 to 10^−8 in DMEM were inoculated to RD cells, BGMK cells, or MRC-5 in 96‐well plates. The cells were then incubated for 2 to 3 days at 37°C. TCID50 was calculated by counting the wells with cytopathic effect in infected cells using the Reed–Muench method.
The viral gene copy in the cell lysate is normalized with the transcript of GAPDH and presented. Viral titers were also detected by TCID50 assay. […] All experiments were independently repeated thrice.

EV-A71 [3] = test: Time-of-drug addition assay in RD cells; assay type: cell-based, Human enterovirus A71; conditions: MOI 1, read at 12 hpi
Method: RD cells were seeded into 24-well plates or eight-well chamber slides (Millicell) 1 day before infection with EV-A71 at an MOI of 1. After adsorption for 2 h, the cells were washed with PBS once to remove the unbound virus and maintained in DMEM supplemented with 2% FBS. […] At 12 hpi, the virus from the culture supernatant were collected, and the relative viral gene copy was detected by RT-qPCR. Meanwhile, the virus titer was assessed using TCID50 assay as described before. To analyze VP1 expression, the cells in the eight-well chamber slides were fixed and then monitored using immunofluorescence staining.
(A) Graphical scheme illustrating the experimental design. (B) RT-qPCR measured the amount of viral RNA released into culture supernatant. (C) Viral titer was determined in TCID50 assays. […] Nuclei are counterstained with DAPI (blue). Scale bar, 50 µm.

Akt phosphorylation = test: Western blot of phosphorylated Akt and total Akt in RD cells; assay type: cell-based
Method: Western blot analysis was performed as described previously ([26]). In brief, the indicated cell samples were lysed in RIPA buffer supplemented with protease inhibitors (Thermo Fisher Scientific, 78430). The cell lysates were then separated in 10% SDS-PAGE and transferred to a 0.45-µm nitrocellulose membrane. After blocking, the membrane was incubated with an against VP1 antibody (GeneTex, GTX132339), VEGFR1 antibody (Abcam, ab32152), VEGFR2 antibody (Abcam, ab134191), phosphorylated VEGFR2 antibody (Tyr951) (CST 4991), VEGFR3 antibody (Beyotime, AF6918), Akt antibody (CST 4685), phosphorylated Akt antibody (CST 4060), or GAPDH antibody (GeneTex, GTX627408) diluted 1:5,000 in primary antibody dilution buffer overnight at 4°C, followed by corresponding secondary staining. The blots were visualized by western horseradish peroxidase substrate and imaged with Gel Doc XR+.
Fig. S8. Viral reduction in RD cells with Akt inhibitor treatment. […] Significant inhibition of EV-A71 infection was found for both cell lysate (left) and supernatant (middle) using RT-qPCR analysis. The results represent the viral load in the cells treated with MK-2206 relative to that in DMSO-treated cells. Viral titer was also determined for inhibitor-treated samples in TCID50 assays (right). […] (C) The levels of VP1, phosphorylated Akt and total Akt protein were measured for samples treated with DMSO or MK-2206 using western blotting.
Fig. S9. […] (A) RD cells were infected with EV-A71 at an MOI of 1, and cell lysates were collected at the indicated times. Western blotting assays were then performed to assess the levels of phosphorylated Akt and total Akt. (B)The plasmids pVEGFR2 or pEmpty vector were transfected into RD cells. At the indicated times post-transfection, cells were harvested to detect the expression levels of phosphorylated Akt and total Akt by western blotting. […] Western blotting assays were then performed to assess the levels of phosphorylated Akt and total Akt. […] At 1 hpi, cells were harvested to detect the expression levels of phosphorylated Akt and total Akt by western blotting. […]

VEGFR2 = tested on: VEGFR2; design: method as in PMID 17620431; conditions: cited from earlier work
EV-A71 [4] = test: Multi-cycle virus growth assay in RD cells (TCID50); assay type: cell-based, Human enterovirus A71; conditions: 10 µM, MOI 0.01, entire time-course
Description: RD cells were infected with EV‐A71 at an MOI of 0.01. Viral titers in cell culture supernatants were quantified by TCID50 assay at indicated time points. […] RD cells were infected with EV‐A71 at an MOI of 1. […] At 12 hpi, the cells were lysed for detecting mRNA expression levels of proinflammatory cytokines and chemokines. IL-6, interleukin 6; IL-8, interleukin 8; TNF-α, tumor necrosis factor-α.

[5] = tested on: IL-6, IL-8, TNF-α mRNA expression; test: EV-A71-induced pro-inflammatory cytokine mRNA expression in Huh7 and THP-1 cells; assay type: cell-based; conditions: 10 µM, Huh7 (MOI 2) and THP-1 (MOI 5) cells, 12 hpi

## Cc1ccc(Nc2nccc(N(C)c3ccc4c(C)n(C)nc4c3)n2)cc1S(N)(=O)=O [Pazopanib]
EV-A71 [1]
  EC50: 890 ± 20 nM
VEGFR1
  IC50: 10 nM
[2]
  CC50 at 24 h: 226000 ± 27600 nM
CVA10
  viral load and viral titer of CVA10 in cell lysates and supernatants: significantly reduced
EV-A71 [3]; 10 µM added at 6 to 10 hpi
  inhibitory effect, late treatment: no significant inhibitory effect
EV-A71 [3]; 10 µM added at −2 h, 0 h, 2 h, 4 h
  viral load and viral titer of progeny virions in culture medium, early treatment: significantly reduced
Akt phosphorylation; 10 µM pretreatment
  Akt phosphorylation in mock-infected cells: significantly attenuated Akt phosphorylation
Akt phosphorylation; 10 µM, MOI 1, 1 hpi
  EV-A71-stimulated Akt phosphorylation: inhibited
VEGFR2
  IC50: […]
EV-A71 [4]
  decrease of viral titers in the cell supernatant vs DMSO: over 4 logs
[5]
  EV-A71-induced pro-inflammatory cytokine activation: significantly suppressed
